Reference: PubChem BioAssay AID192 (DTP/NCI, 2004)
Where “and” joins values, the source holds several entries; their conditions need not be identical. Identical values can stand only once. Toxic doses and inconclusive results are not listed. Rule for the calls: active = survival T/C of 150% or more; inactive = T/C below 125% in these data.

Tested on: BDF1 mice, B16 melanoma ip, median survival T/C
Assay: NCI In Vivo Anticancer Drug Screen. Data for tumor model B16 Melanoma (intraperitoneal) in B6D2F1 (BDF1) mice
Settings: endpoint: median survival time, higher = longer survival
How it was run: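 Antitumor activity is assessed in mice bearing a transplanted tumor, with survival or tumor size compared against vehicle-dosed controls and expressed as T/C.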

[1] = dose: 50.0 mg/kg/injection, schedule: Q01DX009 (ip), vehicle: saline
[2] = dose: 50.0 mg/kg/injection, schedule: Q04DX003 (ip), vehicle: saline with Tween-80
[3] = dose: 100.0 mg/kg/injection, schedule: Q01DX009 (ip), vehicle: saline
[4] = dose: 25.0 mg/kg/injection, schedule: Q01DX009 (ip), vehicle: saline with Tween-80
[5] = dose: 50.0 mg/kg/injection, schedule: Q01DX009 (ip), vehicle: saline with Tween-80
[6] = dose: 100.0 mg/kg/injection, schedule: Q01DX009 (ip), vehicle: saline with Tween-80
[7] = dose: 200.0 mg/kg/injection, schedule: Q01DX009 (ip), vehicle: saline with Tween-80
[8] = dose: 25.0 mg/kg/injection, schedule: Q01DX009 (ip), vehicle: saline
[9] = dose: 400.0 mg/kg/injection, schedule: Q01DX009 (ip), vehicle: saline with Tween-80
[10] = dose: 25.0 mg/kg/injection, schedule: Q01DX009 (ip), vehicle: Klucel (hydroxypropylcellulose) (HPC)
[11] = dose: 50.0 mg/kg/injection, schedule: Q01DX009 (ip), vehicle: Klucel (hydroxypropylcellulose) (HPC)
[12] = dose: 100.0 mg/kg/injection, schedule: Q01DX009 (ip), vehicle: Klucel (hydroxypropylcellulose) (HPC)

Measured: T/C

O=C(NO)c1ccccc1
inactive: dose: 12.5 mg/kg/injection, schedule: Q01DX009 (ip), vehicle: suspension in saline 94 % of control | dose: 25.0 mg/kg/injection, schedule: Q01DX009 (ip), vehicle: suspension in saline 95 % of control | [1] 97 % of control | dose: 50.0 mg/kg/injection, schedule: Q01DX009 (ip), vehicle: suspension in saline 92 % of control | [2] 107 % of control | [3] 97 % of control | dose: 100.0 mg/kg/injection, schedule: Q01DX009 (ip), vehicle: suspension in saline 92 % of control | dose: 100.0 mg/kg/injection, schedule: Q04DX003 (ip), vehicle: saline with Tween-80 111 % of control | dose: 178.0 mg/kg/injection, schedule: Q04DX003 (ip), vehicle: saline with Tween-80 102 % of control | dose: 200.0 mg/kg/injection, schedule: Q01DX009 (ip), vehicle: saline 107 % of control | dose: 200.0 mg/kg/injection, schedule: Q04DX003 (ip), vehicle: saline with Tween-80 108 % of control | dose: 400.0 mg/kg/injection, schedule: Q04DX003 (ip), vehicle: saline with Tween-80 100 % of control | dose: 600.0 mg/kg/injection, schedule: Q04DX003 (ip), vehicle: saline with Tween-80 100 % of control

[Cl][Pt+2][Cl].[NH-]C1CCCC1.[NH-]C1CCCC1
inactive: dose: 2.5 mg/kg/injection, schedule: Q01DX009 (ip), vehicle: Klucel (hydroxypropylcellulose) (HPC) 107 % of control | dose: 5.0 mg/kg/injection, schedule: Q01DX009 (ip), vehicle: Klucel (hydroxypropylcellulose) (HPC) 117 % of control | dose: 10.0 mg/kg/injection, schedule: Q01DX009 (ip), vehicle: Klucel (hydroxypropylcellulose) (HPC) 112 % of control | dose: 10.0 mg/kg/injection, schedule: Q01DX009 (ip), vehicle: olive oil, sesame oil, peanut oil 104 % of control | dose: 10.0 mg/kg/injection, schedule: Q01DX009 (ip), vehicle: saline with Tween-80 109 % of control | dose: 10.0 mg/kg/injection, schedule: Q01DX009 (ip), vehicle: saline 110 % of control | dose: 20.0 mg/kg/injection, schedule: Q01DX009 (ip), vehicle: saline with Tween-80 117 % of control | dose: 20.0 mg/kg/injection, schedule: Q01DX009 (ip), vehicle: saline 124 % of control | dose: 40.0 mg/kg/injection, schedule: Q01DX009 (ip), vehicle: saline with Tween-80 117 % of control | dose: 40.0 mg/kg/injection, schedule: Q04DX003 (ip), vehicle: Klucel (hydroxypropylcellulose) (HPC) 108 % of control | dose: 40.0 mg/kg/injection, schedule: Q04DX003 (ip), vehicle: saline 122 % of control | dose: 80.0 mg/kg/injection, schedule: Q01DX001 (ip), vehicle: Klucel (hydroxypropylcellulose) (HPC) 105 % of control | dose: 80.0 mg/kg/injection, schedule: Q01DX001 (ip), vehicle: saline 117 % of control | dose: 80.0 mg/kg/injection, schedule: Q01DX009 (ip), vehicle: Klucel (hydroxypropylcellulose) (HPC) 115 % of control | dose: 80.0 mg/kg/injection, schedule: Q01DX009 (ip), vehicle: saline with Tween-80 109 % of control | dose: 80.0 mg/kg/injection, schedule: Q04DX003 (ip), vehicle: Klucel (hydroxypropylcellulose) (HPC) 105 % of control | dose: 160.0 mg/kg/injection, schedule: Q01DX001 (ip), vehicle: Klucel (hydroxypropylcellulose) (HPC) 117 % of control | dose: 160.0 mg/kg/injection, schedule: Q01DX009 (ip), vehicle: saline 94 % of control | dose: 160.0 mg/kg/injection, schedule: Q04DX003 (ip), vehicle: Klucel (hydroxypropylcellulose) (HPC) 105 % of control | dose: 320.0 mg/kg/injection, schedule: Q01DX001 (ip), vehicle: Klucel (hydroxypropylcellulose) (HPC) 123 % of control | dose: 320.0 mg/kg/injection, schedule: Q04DX003 (ip), vehicle: Klucel (hydroxypropylcellulose) (HPC) 114 % of control | dose: 640.0 mg/kg/injection, schedule: Q04DX003 (ip), vehicle: saline 105 % of control

CCCCCCOC(CN(C)C)C(Cl)(Cl)Cl (stereo unspecified)
inactive: dose: 12.5 mg/kg/injection, schedule: Q01DX009 (ip), vehicle: distilled water + Tween-80 100 % of control | dose: 12.5 mg/kg/injection, schedule: Q01DX009 (ip), vehicle: saline with Tween-80 101 % of control | dose: 25.0 mg/kg/injection, schedule: Q01DX009 (ip), vehicle: distilled water + Tween-80 97 % of control | [4] 105 % of control | dose: 50.0 mg/kg/injection, schedule: Q01DX009 (ip), vehicle: distilled water + Tween-80 94 % of control | [5] 102 % of control | dose: 100.0 mg/kg/injection, schedule: Q01DX009 (ip), vehicle: distilled water + Tween-80 89 % of control | [6] 90 % of control | [7] 89 % of control

O=C(O)CC(Br)C(=O)c1ccccc1 (stereo unspecified)
inactive: dose: 12.5 mg/kg/injection, schedule: Q04DX003 (ip), vehicle: saline with Tween-80 93 % of control | dose: 25.0 mg/kg/injection, schedule: Q04DX003 (ip), vehicle: saline with Tween-80 86 % of control | [2] 88 % of control

NCCCOc1ccc([N+](=O)[O-])cc1Cl
inactive: [8] 104 % of control | [1] 104 % of control | [3] 102 % of control

CCOC(CCC#N)c1ccc(Cl)cc1 (stereo unspecified)
inactive: [6] 98 % of control | [7] 96 % of control | [9] 97 % of control

C=CCOCC(O)CNCCCOC (stereo unspecified)
inactive: dose: 6.25 mg/kg/injection, schedule: Q01DX009 (ip), vehicle: saline 102 % of control | dose: 12.5 mg/kg/injection, schedule: Q01DX009 (ip), vehicle: saline 98 % of control | [8] 98 % of control

CC1C2Cc3ccc(O)cc3C1(C)CCN2CC1CC1 (stereo unspecified)
inactive: [10] 100 % of control | [11] 94 % of control | [12] 95 % of control

O=C(Nc1ccc(NC2=NCCN2)cc1)c1cccc(C(=O)Nc2ccc(NC3=NCCN3)cc2)c1
inactive: dose: 7.5 mg/kg/injection, schedule: Q01DX009 (ip), vehicle: saline with Tween-80 105 % of control | dose: 7.5 mg/kg/injection, schedule: Q04DX003 (ip), vehicle: saline with Tween-80 100 % of control | dose: 15.0 mg/kg/injection, schedule: Q01DX009 (ip), vehicle: saline with Tween-80 92 % of control | dose: 15.0 mg/kg/injection, schedule: Q04DX003 (ip), vehicle: saline with Tween-80 88 % of control | dose: 30.0 mg/kg/injection, schedule: Q04DX003 (ip), vehicle: saline with Tween-80 100 % of control

COc1cccc(O)c1
inactive: [4] 97 % of control | [5] 96 % of control | [6] 91 % of control | [7] 86 % of control

CCCCOC(=O)C1C(C(=O)OCCCC)C2(Cl)C(Cl)=C(Cl)C1(Cl)C2(Cl)Cl (stereo unspecified)
inactive: [12] 114 % of control | dose: 200.0 mg/kg/injection, schedule: Q01DX009 (ip), vehicle: Klucel (hydroxypropylcellulose) (HPC) 116 % of control | dose: 400.0 mg/kg/injection, schedule: Q01DX009 (ip), vehicle: Klucel (hydroxypropylcellulose) (HPC) 113 % of control

CCOC(=O)C(Cc1ccc(O)cc1)NP(=O)(OCCCl)OCCCl (stereo unspecified)
inactive: dose: 200.0 mg/kg/injection, schedule: Q04DX003 (ip), vehicle: Klucel (hydroxypropylcellulose) (HPC) 86 % of control | dose: 400.0 mg/kg/injection, schedule: Q04DX003 (ip), vehicle: Klucel (hydroxypropylcellulose) (HPC) 91 % of control

Nc1ccc(S(N)(=O)=O)cc1
inactive: [4] 97 % of control and 99 % of control | [5] 94 % of control and 102 % of control | [6] 91 % of control and 100 % of control | [7] 96 % of control and 102 % of control | [9] 99 % of control and 105 % of control

Cc1cc(N)c2cc(NC(=O)CCCCCCCCC(=O)Nc3ccc4nc(C)cc(N)c4c3)ccc2n1
inactive: dose: 3.12 mg/kg/injection, schedule: Q01DX009 (ip), vehicle: Klucel (hydroxypropylcellulose) (HPC) 89 % of control | dose: 6.25 mg/kg/injection, schedule: Q01DX009 (ip), vehicle: Klucel (hydroxypropylcellulose) (HPC) 87 % of control and 91 % of control | dose: 12.5 mg/kg/injection, schedule: Q01DX009 (ip), vehicle: Klucel (hydroxypropylcellulose) (HPC) 100 % of control | [10] 95 % of control and 107 % of control | [11] 95 % of control and 99 % of control

CC(=O)NNC(=O)c1cnccn1
inactive: dose: 22.5 mg/kg/injection, schedule: Q01DX009 (ip), vehicle: saline 97 % of control | dose: 45.0 mg/kg/injection, schedule: Q01DX009 (ip), vehicle: saline 97 % of control | dose: 90.0 mg/kg/injection, schedule: Q01DX009 (ip), vehicle: saline 90 % of control

C=CCSC(C)CC (stereo unspecified)
inactive: [4] 108 % of control | [5] 119 % of control | [6] 107 % of control

CC(=O)NCc1cc(CNC(C)=O)c(C)cc1C
inactive: [6] 88 % of control | [7] 86 % of control
